The values that follow come from paper PMC7504435, “Combined Protein- and Ligand-Observed NMR Workflow to Screen Fragment Cocktails against Multiple Proteins: A Case Study Using Bromodomains” (Molecules, 2020).

“And” between values parts separate entries of the source, which are not always exact repeats. Identical values can stand only once.

The target of assay [1] is T1, BPTF bromodomain (Homo sapiens, UniProt Q12830). The assay is described as follows: Competition 1H CPMG NMR with BPTF. The class given is binding. More on the design: deconvolution of the hit mixtures using the non-fluorine-labeled bromodomains; made in house; host or cells: E. coli BL21(DE3). The procedure:
The competition ^1H CPMG NMR and PrOF NMR assays were employed to further probe the binding mode of 9 to PfGCN5.
(§1) ^1H CPMG NMR. ^1H CPMG NMR screen data were acquired on Bruker Avance III HD 500 with the 5 mm Prodigy TCI cryoprobe inverse cryoprobe (^1H 2500:1 S/N). Competition ^1H CPMG NMR data were acquired on Bruker 700 MHz Avance with a CryoProbe 5 mm TXI (^1H S:N with H2O suppression (2mM sucrose) - 900:1) and excitation sculpting water suppression. Proteins were present at 10 µM in 50 mM phosphate, 100 mM NaCl, pH 7.4 in 100% D2O. In separate NMR tubes, a ^1H CPMG NMR pulse was applied to a 1) mixture of ligands (individual ligands present at 100 µM for the screen and 50 µM for competition experiments) and 2) ligands + protein. […] For the competition experiments, τ was increased to 4.0 ms.

Assay [2] addresses T2, PfGCN5 bromodomain (Plasmodium falciparum, UniProt Q8IB67). The assay is described as follows: biochemical. The class given is binding. The method, then: (§2) The screening workflow consists of two dependent steps: 1) a PrOF NMR screen of the 5FW-labeled proteins and a cocktail of 4–5 fragments in a single NMR tube; 2) a ^1H CPMG NMR binding assay to deconvolute the hit mixtures for each protein (Figure 1). In the first step, a dual-protein PrOF NMR spectrum was obtained in which 5FW-PfGCN5, 5FW-BPTF (~ 50 µM each) and mixtures of fragments (400 µM individual fragment) were present in the same NMR tube. […] Chemical shift perturbations indicating a ligand binding event were based on a prior cutoff of Δδ ≥ 0.030 ppm as the definition for a hit mixture. This cutoff was based on a statistical analysis of chemical shift perturbations from a prior BRD4 D1 fragment screen and are described further in the experimental section and in Table S2.
(§3) PrOF NMR. PrOF NMR spectra were obtained on a Bruker Avance III HD 500 with the 5 mm Prodigy TCI inverse cryoprobe (^19F S:N 2000:1). […] The DMSO concentration for all experiments was kept constant at 1%. […] For the PrOF NMR screen, 5FW-BPTF and 5FW-PfGCN5 (35–40 µM in 50 mM phosphate, 100 mM NaCl, pH 7.4) were tested with mixtures of 4–5 fragments, where each individual fragment was 400 µM. […] A 10 Hz line broadening was applied. Titrations were fit to Equation (2), where p is the protein concentration and L is the ligand concentration. (2) Δδ=Δδmax × (Kd+P+L ) − (((Kd + P + L )^2) − 4PL)/2P
(§4) A PrOF NMR binding event is characterized as a change in chemical shift (Δδ) from the protein-only spectrum to the protein + fragment mixture spectrum. We used a prior cutoff of Δδ ≥ 0.030 ppm as the definition of a hit mixture, based on a statistical analysis of chemical shift perturbations from a prior BRD4 D1 fragment screen.

Assay [3] concerns the target BRD4 D1. The conditions noted are these: data from previous screen; cited from earlier work.
Assay [4] deals with T1, BPTF bromodomain. Kind of assay: 1H CPMG NMR deconvolution of hit mixtures, BPTF. More on the design: deconvolution of the hit mixtures using the non-fluorine-labeled bromodomains; made in house; host or cells: E. coli BL21(DE3). Conditions: 10 µM protein, 100 µM ligand. The class given is binding. The procedure:
The second step is a ^1H CPMG NMR deconvolution of the hit mixtures using the non-fluorine-labeled bromodomains. ^1H CPMG NMR employs a T2 filter to take advantage of the difference in transverse relaxation time between protein and small molecules to filter out the bound-state ligand(s). Unlike the PrOF NMR assay, a single protein is assayed in each experiment. A binding event is characterized by a decrease in ligand resonance intensity from the ligand alone spectrum to the ligand + protein spectrum. A hit is defined as a decrease in resonance intensity ≥ 20%. The ^1H CPMG NMR assay can be tuned by changing the protein or ligand concentration, filter length (Figure 1), or hit criteria depending on how stringent the desired hit rate is. The number of ^1H CPMG NMR deconvolution experiments is directly informed from the first step. If a mixture from the first step was only a hit for one protein, a single ^1H CPMG NMR deconvolution experiment is needed. If a mixture from the first step was a hit for both proteins, two separate ^1H CPMG NMR deconvolutions experiments are needed to determine the fragments that bind to each protein.
as §1

The target of assay [5] is T1, BPTF bromodomain. Kind of assay: PrOF NMR (dual-protein screen of mixtures, titrations) with 5FW-BPTF. The class given is binding. More on the design: against the bromodomains of BPTF and Plasmodium falciparum GCN5 (PfGCN5); his6; made in house. The conditions noted are these: hit mixture containing the fragment, 400 µM each fragment. The procedure: as §2, §3, §4
For assay [6], the target named is T2, PfGCN5 bromodomain. The assay is described as follows: Competition 1H CPMG NMR with PfGCN5. The class given is binding. From the text: The competition ^1H CPMG NMR and PrOF NMR assays were employed to further probe the binding mode of 9 to PfGCN5. […] At high concentrations, at or above the protein concentration, the competition maxed out at ~ 50% (Figure 2, Figure S10, Table S5). Conversely, TP-238 was able to compete 9 off from BPTF at low concentrations.
^1H CPMG NMR. ^1H CPMG NMR screen data were acquired on Bruker Avance III HD 500 with the 5 mm Prodigy TCI cryoprobe inverse cryoprobe (^1H 2500:1 S/N). Competition ^1H CPMG NMR data were acquired on Bruker 700 MHz Avance with a CryoProbe 5 mm TXI (^1H S:N with H2O suppression (2mM sucrose) - 900:1) and excitation sculpting water suppression. Proteins were present at 10 µM in 50 mM phosphate, 100 mM NaCl, pH 7.4 in 100% D2O. In separate NMR tubes, a ^1H CPMG NMR pulse was applied to a 1) mixture of ligands (individual ligands present at 100 µM for the screen and 50 µM for competition experiments) and 2) ligands + protein. For competition experiments, the ligands were used individually, and the competitor ligands were spiked into tube 2. ^1H CPMG NMR parameters for the screen: NS = 128, acquisition time = 2 s, τ = 2.5 ms, and L = 120. For the competition experiments, τ was increased to 4.0 ms.

T2 sequence (Q8IB67 entry or part of it): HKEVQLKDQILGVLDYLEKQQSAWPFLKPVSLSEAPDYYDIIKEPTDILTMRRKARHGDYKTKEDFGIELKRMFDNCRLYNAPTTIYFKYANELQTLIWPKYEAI

Take `Nc1ccc2c(c1)N(C(=O)C1CC1)CCC2` [Fragment 9]: the results for the “% drop BPTF” value in assay [1] (resonance of 9 at 2.6884 ppm) and in assay [1] (resonance of 9 at 6.98 ppm) were 46% and 68%, respectively. Also, the “ligand efficiency (LE)” value in assay [2] (PfGCN5, from Kd = 16 µM) turned out to be 0.43. Also, the Kd in assay [2] (PfGCN5 Kd, PrOF NMR titration, for 9 average of W1454 and W1379, NS = non-saturating) is 17 µM and 16 µM; in assay [3], 50 µM. The “Initial Mixture PfGCN5 PrOF NMR Δδ” value in assay [2] (hit mixture containing the fragment, 400 µM each fragment) was “++++ (++++ = Δδ > 0.2)”. In addition, in assay [2] (ratio of Kd values), the “selectivity, binds PfGCN5 over BPTF” value stood at 9 fold. The “BPTF CPMG % decrease” value in assay [4] is on record as 100%. Besides, in assay [4] (for 9 from competition experiments (footnote a)), the “1H CPMG NMR % Drop in Resonance Intensity BPTF” value is “++++ ^a (++++ = 80–99.9%)”. Moreover, the “Initial Mixture BPTF PrOF NMR Δδ” value in assay [5] is given as “++++ (++++ = Δδ > 0.2)”. Also, the “% drop PfGCN5” value in assay [6] (resonance of 9 at 2.6884 ppm, GSK series) is listed as 72%; in assay [6] (resonance of 9 at 2.6884 ppm, L-Moses series) it was 83%; in assay [6] (resonance of 9 at 6.98 ppm, GSK series) it was 71%; in assay [6] (resonance of 9 at 6.98 ppm, L-Moses series), 75%.

One may read the Kd as the constant that tells how readily two partners part at equilibrium.
